How the values were obtained:
NFS-60 cells = test: NFS-60 cell assay (CCK proliferation, M-CSF stimulated); format: cell-based; details: Mus musculus, compound 0.5 uM, 72 h, 40 ng/mL M-CSF, read-out: inhibition ratio % (NFS-60 cell proliferation)
Protocol: Example 54: NFS-60 Cell Assay
1. Experimental Materials
Mouse Myelogenous Leukemia Cells (NFS-60)
Using DMSO to dissolve, and the required concentration was prepared with full culture medium without factors.
Penicillin-streptomycin: TRANS
Mouse M-CSF/CSF-1 Protein: Sino Biological Inc, No. 51112-MNAH
M-CSF: Qilu Pharmaceutical co., Ltd.
The logarithmic growth phase of NFS-60 cells (1640+10% FBS+40 ng/ml M-CSF+1% Penicillin-streptomycin) were centrifuged (1000 r/min) and cultured in a factor-free medium at 37° C., 5% CO2 for 24 hours. Centrifugating (1000 r/min), the culture medium was replaced by new culture medium including 40 ng/mL factors, and inoculated on 96-well plate by 2*10^4 cells/mL, 100 μL/hole. After 16 hours, the tested compounds were added 10 μL/hole, 3 duplicate holes per compound, 37° C., 5% CO2, continue to cultured for 72 h. Then 10 μL CCK reagent was added to each hole. After incubation for 4 hours, the absorbance of each hole was measured at 450 nm wavelength. According to Formula: Inhibitory rate (%)=(1-OD value of test pore/OD value of solvent control pore)×100% 3. Experimental Results The experimental results of the inhibition of NFS-60 cell proliferation by the compounds prepared in Example 3-52, 0.5 uM, are shown in the following table: […]

CSF-1R = target: T1, CSF-1R (Homo sapiens, UniProt P07333); test: CSF-1R kinase assay (HTRF kinEASE TK); format: biochemical; details: ATP 2.5 uM, enzyme 0.012 ng/ul, read-out: In vitro inhibitory activity of CSF-1R IC50
T1 construct: purchased Invitrogen PV3249
T1 sequence (P07333 20-972): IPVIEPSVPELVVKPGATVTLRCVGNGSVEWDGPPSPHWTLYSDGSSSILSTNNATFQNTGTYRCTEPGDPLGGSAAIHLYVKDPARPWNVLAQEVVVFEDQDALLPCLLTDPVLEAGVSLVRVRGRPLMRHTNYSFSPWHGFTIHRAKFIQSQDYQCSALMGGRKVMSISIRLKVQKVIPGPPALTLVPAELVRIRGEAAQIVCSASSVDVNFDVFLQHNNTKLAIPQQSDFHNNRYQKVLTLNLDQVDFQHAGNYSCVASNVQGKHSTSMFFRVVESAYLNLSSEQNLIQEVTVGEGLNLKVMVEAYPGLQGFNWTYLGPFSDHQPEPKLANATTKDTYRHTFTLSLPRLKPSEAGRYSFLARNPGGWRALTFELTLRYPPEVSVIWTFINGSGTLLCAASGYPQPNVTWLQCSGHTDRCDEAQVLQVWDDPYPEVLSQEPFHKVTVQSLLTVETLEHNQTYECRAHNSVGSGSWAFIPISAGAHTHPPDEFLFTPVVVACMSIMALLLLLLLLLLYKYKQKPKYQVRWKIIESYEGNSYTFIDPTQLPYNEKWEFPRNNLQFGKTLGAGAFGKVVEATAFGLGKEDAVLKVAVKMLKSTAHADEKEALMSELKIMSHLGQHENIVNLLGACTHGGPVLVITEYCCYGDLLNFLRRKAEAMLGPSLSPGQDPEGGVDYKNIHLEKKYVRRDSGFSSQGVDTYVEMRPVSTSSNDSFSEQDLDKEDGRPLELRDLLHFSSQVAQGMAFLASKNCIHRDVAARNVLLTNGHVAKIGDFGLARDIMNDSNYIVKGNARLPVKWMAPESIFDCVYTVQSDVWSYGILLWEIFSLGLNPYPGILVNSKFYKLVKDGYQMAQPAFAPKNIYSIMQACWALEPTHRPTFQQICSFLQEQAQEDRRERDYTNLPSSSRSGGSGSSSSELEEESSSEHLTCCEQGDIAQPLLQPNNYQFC
Protocol: Example 53: CSF-1R Kinase Assay
I. Materials and Instruments
• 2104 EnVision® Multilabel Reader (PerkinElmer) • OptiPlate-384, White Opaque 384-well MicroPlate (Cat.6007290, PerkinElmer) • HTRF kinEASE TK (Cat.62TKOPEC, Cisbio) • CSF-1R(Cat. PV3249, Invitrogen) • ATP 10 mM (Cat. PV3227, Invitrogen) • DTT 1 M (Cat. D5545, Sigma) • MgCl2 1 M (Cat. M8266, Sigma) • MnCl2 1 M (Cat.244589. Sigma)
II. Experimental Procedure
Substrate-TK and ATP were diluted to 5 times of the reaction concentration by 1×Kinase Buffer. CSF1R enzyme was diluted to 5×enzyme solution by 1×kinase buffer. Sa-XL665 was diluted to 4×Sa-XL665 solution by Detection Buffer. 100×TK-Ab-Cryptate Solution TK-Ab-Cryptate was diluted to 100×TK-Ab-Cryptate solution by Detection Buffer. 2. Experimental Procedure After all reagents had been prepared according to the above method, except enzymes, the sample was added after equilibrium to room temperature. • a. Firstly, 2.5% DMSO solution was prepared by using 1×kinase buffer (the high concentration of DMSO will affect the reaction and control the final concentration of DMSO to 1%). Then the compounds were diluted by 2.5% DMSO solution corresponding to the enzyme. The screening concentration of the compounds was 4 times gradient dilution from 1000 nM, and 8 concentrations. In addition to the control pore, 4 microlitres of diluted solution containing 2.5% DMSO were added to the reaction pore and 4 microlitres of previously prepared solution containing 2.5% DMSO were added to the control pore. • b. 2 microlitres of previously prepared TK-biotin substrate solution was added to all reaction pore (the amount of substrate used for enzyme screening is shown in Table 15). • c. Adding 2 microlitres of CSF1R enzyme solution of corresponding concentration (the amount of enzyme is shown in Table 15) to all reaction pore except negative pore. The negative pore is supplemented with 2 microlitres of enzyme corresponding to 1 xkinase buffer. After mixing, the compound and enzyme can be fully combined by incubating at room temperature for 10 minutes. • d. Enzyme reaction was initiated by adding 2 microlitres ATP solution of corresponding concentration to all reaction pore. The reaction time was 30 minutes (the corresponding ATP concentration and reaction time at enzyme screening were shown in Table 15). • e. Preparing the test solution 5 minutes before the end of kinase reaction. Streptavidin-XL665 and TK antibody europium cryptate (1:100) were prepared with detection buffer in the kit (the corresponding concentration of detection reagent for enzyme screening is shown in Table 15). • f. After the kinase reaction, 5 microlitres of diluted Streptavidin-XL665 were added to all reaction pore, mixing, and then the diluted TK antibody europium cryptate solution was added immediately. • g. After 1 hour reaction at room temperature, the fluorescence signals (320 nm stimulation, 665 nm, 615 nm emission) were detected by ENVISION (Perkinelmer) instrument. The inhibition rate of each pore was calculated by full active pore and background signal pore, and the average value of complex pore was obtained. Meanwhile, the half inhibitory activity (IC50) of each compound was fitted by professional drawing analysis software PRISM 5.0. The Flow Chart of the Experiment is as Follows:
3. Data Analysis Emission Ratio (ER)=665 nm Emission signal/615 nm Emission signal Inhibitory rate=(ERpositive−ERsample)/(ERpositive−ERnegative)*100% Using Graphpad Prism 5 and log (inhibitor) vs. normalized response to fit IC50 curve and calculate IC50 value. The IC50 data of the compounds prepared in Representative Examples 3-52 are as follows (Table 18): […]

IC50 (CSF-1R)	SMILES	inhibition at 0.5 µM (NFS-60 cells)
–	C[C@@H](Oc1cc(-c2cnn(C)c2)cnc1N)c1cccc(NC(=O)c2cccc(S(C)(=O)=O)c2)c1 [Compound 168, (R)-N-(3-(1-((2-amino-5-(1-methyl-1H-pyrazol-4-yl)pyridin-3-yl)oxy)ethyl)phenyl)-3-(methylsulfonyl)benzamide]	≥ 50%
51 to 500 nM	Cc1cccc(NC(=O)Nc2cccc(Oc3cc(Cl)cnc3N)c2)c1 [Compound 331, 1-(3-((2-amino-5-chloropyridin-3-yl)oxy)phenyl)-3-(m-tolyl)urea]	–
≤ 50 nM	CC(C)c1cccc(C(=O)Nc2cccc([C@@H](C)Oc3cc(-c4cnn(C)c4)cnc3N)c2)c1 [Compound 187, (R)-N-(3-(1-((2-amino-5-(1-methyl-1H-pyrazol-4-yl)pyridin-3-yl)oxy)ethyl)phenyl)-3-isopropylbenzamide]	–
≤ 50 nM	Cc1cc(C)cc(C(=O)Nc2cccc([C@@H](C)Oc3cc(-c4cnn(C)c4)cnc3N)c2)c1 [Compound 171, (R)-N-(3-(1-((2-amino-5-(1-methyl-1H-pyrazol-4-yl)pyridin-3-yl)oxy)ethyl)phenyl)-3,5-dimethyl benzamide]	–
–	C[C@@H](Oc1cc(-c2cccnc2)cnc1N)c1cccc(NC(=O)c2cccc(C3CC3)c2)c1 [Compound 200, (R)-N-(3-(1-((6-amino-[3,3′-bipyridin]-5-yl)oxy)ethyl)phenyl)-3-cyclopropylbenzamide]	≥ 50%
51 to 500 nM	Cc1cccc(C(=O)Nc2ccc(Cl)c([C@@H](C)Oc3cc(Cl)cnc3N)c2)c1Cl [Compound 95, (R)-N-(3-(1-((2-amino-5-chloropyridin-3-yl)oxy)ethyl)-4-chlorophenyl)-2-chloro-3-methylbenzamide]	–
51 to 500 nM	Cc1cccc(C(=O)Nc2cccc(Oc3cc(Cl)cnc3N)c2)c1 [Compound 305, N-(3-((2-amino-5-chloropyridin-3-yl)oxy)phenyl)-3-methyl-benzamide]	–
≤ 50 nM	C[C@@H](Oc1cc(-c2cnn(C)c2)cnc1N)c1cccc(NC(=O)c2ccc(C(F)(F)F)c(S(C)(=O)=O)c2)c1 [Compound 175, (R)-N-(3-(1-((2-amino-5-(1-methyl-1H-pyrazol-4-yl)pyridin-3-yl)oxy)ethyl)phenyl)-3-(methylsulfonyl)-4-(trifluoromethyl)benzamide]	–
≤ 50 nM	Cc1cccc(C(=O)Nc2cccc([C@H](C)Oc3cc(Cl)cnc3N)c2)c1Cl [Compound 64, (S)-N-(3-(1-((2-amino-5-chloropyridin-3-yl)oxy)ethyl)-phenyl)-2-chloro-3-methylbenzamide]	–
≤ 50 nM	Cc1ccc(Cl)c(C(=O)Nc2cccc([C@@H](C)Oc3cc(Cl)cnc3N)c2)c1 [Compound 73, (R)-N-(3-(1-((2-amino-5-chloropyridin-3-yl)oxy)ethyl)-phenyl)-2-chloro-5-methylbenzamide]	–
≤ 50 nM	Cn1cc(-c2cnc(N)c(Oc3cccc(NC(=O)Nc4ccc(Cl)c(C(F)(F)F)c4)c3)c2)cn1 [Compound 348, 1-(3-((2-amino-5-(1-methyl-1H-pyrazol-4-yl)pyridin-3-yl)oxy)phenyl)-3-(4-chloro-3-(trifluoromethyl)phenyl)urea]	–
≤ 50 nM	Cc1ccc(C(=O)Nc2cccc([C@@H](C)Oc3cc(-c4cnn(C)c4)cnc3N)c2)cc1C [Compound 170, (R)-N-(3-(1-((2-amino-5-(1-methyl-1H-pyrazol-4-yl)pyridin-3-yl)oxy)ethyl)phenyl)-3,4-dimethyl benzamide]	–
≤ 50 nM	Nc1ncc(Cl)cc1OCc1cccc(NC(=O)c2cccc(Cl)c2)c1 [Compound 22, N-(3-(((2-amino-5-chloropyridin-3-yl)oxy)methyl)phenyl)-3-chloro-benzamide]	–
≤ 50 nM	C[C@@H](Oc1cc(-c2cnn(C)c2)cnc1N)c1cccc(NC(=O)c2ccc3c(c2)CCC3)c1 [Compound 188, (R)-N-(3-(1-((2-amino-5-(1-methyl-1H-pyrazol-4-yl)pyridin-3-yl)oxy)ethyl)phenyl)-2,3-dihydro-1H-indene-5-carboxamide]	–
≤ 50 nM	C[C@H](Oc1cc(Cl)cnc1N)c1cccc(NC(=O)c2cccc(Cl)c2)c1 [Compound 55, (S)-N-(3-(1-((2-amino-5-chloropyridin-3-yl)oxy)ethyl)-phenyl)-3-chlorobenzamide]	–
51 to 500 nM	Cc1cccc(NC(=O)c2cccc([C@H](C)Oc3cc(Cl)cnc3N)c2)c1 [Compound 222, (S)-3-(1-((2-amino-5-chloropyridin-3-yl)oxy)ethyl)-N-(m-tolyl)benzamide]	–
51 to 500 nM	C[C@@H](Oc1cncc(Cl)n1)c1cccc(NC(=O)c2cccc(C(F)(F)F)c2)c1 [Compound 327, (R)—N-(3-(1-((6-chloropyrazin-2-yl)oxy)ethyl)phenyl)-3-(trifluoromethyl)benzamide]	–
500 to 10000 nM	C[C@@H](Oc1cc(Cl)cnc1N)c1cccc(NC(=O)c2cccc(CN3CCN(C)CC3)c2)c1 [Compound 103, (R)-N-(3-(1-((2-amino-5-chloropyridin-3-yl)oxy)ethyl)-phenyl)-3-((4-methylpiperazin-1-yl)methyl)benzamide]	–
51 to 500 nM	Cc1cccc(C(=O)Nc2cccc([C@@H](C)Oc3cc(Cl)cnc3N)n2)c1 [Compound 141, (R)-N-(6-(1-((2-amino-5-chloropyridin-3-yl)oxy)ethyl)-pyridin-2-yl)-3-methylbenzamide]	–
51 to 500 nM	CNc1ncc(Cl)cc1OCc1cccc(NC(=O)c2cccc(C)c2)c1 [Compound 236, N-(3-(((5-chloro-2-(methylamino)pyridin-3-yl)oxy)methyl)phenyl)-3-methylbenzamide]	–
≤ 50 nM	C[C@@H](Oc1cc(-c2cnn(C)c2)cnc1N)c1cccc(NC(=O)c2cccc(C3CC3)c2)c1 [Compound 174, (R)-N-(3-(1-((2-amino-5-(1-methyl-1H-pyrazol-4-yl)pyridin-3-yl)oxy)ethyl)phenyl)-cyclopropylbenzamide]	–
≤ 50 nM	Cc1cccc(C(=O)Nc2cccc([C@@H](C)Oc3cc(-c4cccnc4)cnc3N)c2)c1 [Compound 202, (R)-N-(3-(1-((6-amino-[3,3′-bipyridin]-5-yl)oxy)ethyl)phenyl)-3-methylbenzamide]	–
51 to 500 nM	Cc1cccc(C(=O)Nc2cccc([C@@H](C)Oc3cncc(Cl)c3)c2)c1 [Compound 323, (R)—N-(3-(1-((5-chloropyridin-3-yl)oxy)ethyl)phenyl)-3-methylbenzamide]	–
51 to 500 nM	COc1cccc(C(=O)Nc2cc(C(C)Oc3cc(Cl)cnc3N)ccc2F)c1 (stereo not drawn) [Compound 318, N-(5-(1-((2-amino-5-chloropyridin-3-yl)oxy)ethyl)-2-fluorophenyl)-3-methoxybenzamide]	–

Source: patent US11767296B2, “Heteroaryl compounds as kinase inhibitor” (FUJIAN HAIXI PHARMACEUTICALS CO., LTD, priority 2018, dated 2023)
